Data set [1] in a line: In vivo pharmacokinetic analysis in mice. The arrangement: species or system CD-1 mice. As to conditions: MMAE as potential metabolite in plasma after single IV 2 mg/kg acetate salt of PDC_8, CD-1 mice. The protocol:
To test the pharmacokinetics of the compounds of the present invention in CD-1 mice
(§1) The pharmacokinetic characteristics of the compound after intravenous injection and oral administration were tested in CD-1 mice according to a standard protocol. The compound of the present invention was formulated into a clear solution using 50 mM acetate buffer (pH=5) in 10% sucrose as a vehicle. Two mice were given a single intravenous injection of 2 mg/kg of the compound to be tested. Whole blood was collected at time points of 0.083, 0.25, 0.5, 1, 2, 4, 8, and 24 hours after administration to get plasma. The concentration of the compound to be tested and the concentration of its potential metabolite MMAE were analyzed by the LC-MS/MS method, and the pharmacokinetic parameters, such as maximal concentration (Cmax), clearance (Cl), half-life (T1/2), tissue distribution (Vdss), and area under the concentration-time curve (AUC0-last), were calculated by Phoenix WinNonlin software.

A short description of data set [2]: Pharmacokinetic analysis in Cynomolgus macaque plasma. The class given is in vivo, Cynomolgus macaques. As to conditions: MMAE as potential metabolite in plasma after single IV 1 mg/kg acetate salt of PDC_8, Cynomolgus macaques. The protocol:
To test the pharmacokinetics of the compounds of the present invention in Cynomolgus macaques.
as §1, with “in Cynomolgus macaques” for “in CD-1 mice”, “Two Cynomolgus macaques” for “Two mice”, “of 1” for “of 2”, “pharmacokinetic parameters” for “pharmacokinetic parameters, such as maximal concentration (Cmax), clearance (Cl), half-life (T1/2), tissue distribution (Vdss), and area under the concentration-time curve (AUC0-last),”

Data set [3] in a line: Pharmacokinetic analysis in rat plasma at different doses (6.2). The format is in vivo, SD rats. As to the method:
(§2) Experimental purpose: To test the pharmacokinetics of the compounds of the present invention in SD rats.
(§3) 6.2 The pharmacokinetic characteristics of the compound after intravenous injection and oral administration were tested in rats according to a standard protocol. The compound to be tested was formulated into a clear solution using 50 mM acetate buffer (pH=5) in 10% sucrose as a vehicle. Three male SD rats were given a single intravenous injection of 2.5 mg/kg, 3.75 mg/kg, or 5 mg/kg of the compound to be tested. Whole blood was collected at time points of 0.083, 0.25, 0.5, 1, 4, and 24 hours after administration to get plasma. The concentration of the compound to be tested and the concentration of its potential metabolite MMAE were analyzed by the LC-MS/MS method, and the pharmacokinetic parameters were calculated.

A short description of data set [4]: Pharmacokinetic analysis in rat plasma (6.1, 2 mg/kg). The conditions noted are these: MMAE as potential metabolite in plasma after single IV 2 mg/kg acetate salt of PDC_8, SD rats. The class given is in vivo, SD rats. The protocol:
as §2
as §3, with “6.1” for “6.2”, “Two” for “Three male”, “2” for “2.5 mg/kg, 3.75 mg/kg, or 5”, “1, 2,” for “1,”, “4, 8,” for “4,”, “calculated by Phoenix WinNonlin software.” for “calculated.”

Setting [5] is: MMAE as potential metabolite after single IV 2.5 mg/kg acetate salt of PDC_8, male SD rats.
The mark [6] stands for this setting: MMAE as potential metabolite after single IV 3.75 mg/kg acetate salt of PDC_8, male SD rats.
Where [7] appears, read: MMAE as potential metabolite after single IV 5 mg/kg acetate salt of PDC_8, male SD rats.

Molecules are shown by their SMILES. Non-standard residues stand in square brackets, D forms with d. Residues, ends and D or L forms follow the SMILES beside them. *: point of attachment. Dolaproine = CO[C@@H]([C@@H]1CCCN1)[C@@H](C)C(=O)O; Dil = CC[C@H](C)[C@H](NC)[C@@H](CC(=O)O)OC; X1 = C[C@@H](N*)[C@@H](O)c1ccccc1; NMeV = CN[C@H](C(=O)O)C(C)C

Take `CC[C@H](C)[C@@H]([C@@H](CC(=O)N1CCC[C@H]1[C@H](OC)[C@@H](C)C(=O)N[C@H](C)[C@@H](O)c1ccccc1)OC)N(C)C(=O)[C@@H](NC(=O)[C@@H](NC)C(C)C)C(C)C` [MMAE, monomethyl auristatin E] (H-[NMeV]V[Dil][Dolaproine]-X1): the “AUC0-last” value in data set [1] turned out to be 0.0515 µM·h; in data set [2], 0.0288 µM·h; in data set [3] (setting [5]) it was 0.058 µM·h; in data set [3] (setting [6]) it was 0.185 µM·h; in data set [3] (setting [7]), 0.435 µM·h; in data set [4], 0.0374 µM·h. The Cmax in data set [1] stood at 55 nM; in data set [2], 5.6 nM; in data set [3] (setting [5]), 29 nM; in data set [3] (setting [6]), 39 nM; in data set [3] (setting [7]), 52 nM; in data set [4], 23.5 nM.

These data come from patent publication US20250121076A1, “POLYPEPTIDE DRUG CONJUGATE HAVING NOVEL STRUCTURE AND APPLICATION THEREOF” (MEDSHINE DISCOVERY INC., priority 2021, published 2025).
